Source: the NIST ThermoML archive (doi:10.1021/acs.jced.8b00713)

Details: Liquid; for viscosity: Vibrating wire viscometry; for mass density: Vibrating tube method

FC(F)(F)/C=C\C(F)(F)F [(Z)-1,1,1,4,4,4-hexafluorobut-2-ene]
Details	mass density [kg/m3]	viscosity [mPa·s]
253.14 K, 15000 kPa	–	0.7477
253.14 K, 20000 kPa	–	0.7916
253.15 K, 100 kPa	–	0.6315
253.15 K, 5000 kPa	–	0.6695
253.15 K, 25000 kPa	–	0.8337
253.15 K, 30100 kPa	–	0.871
253.16 K, 1000 kPa	–	0.6387
253.16 K, 2000 kPa	–	0.647
253.16 K, 10000 kPa	–	0.7114
253.16 K, 40000 kPa	–	0.9576
263.14 K, 2000 kPa	–	0.5721
263.14 K, 5000 kPa	–	0.5916
263.14 K, 30000 kPa	–	0.7644
263.15 K, 100 kPa	–	0.5599
263.15 K, 1000 kPa	–	0.5656
263.15 K, 10000 kPa	–	0.6247
263.15 K, 15000 kPa	–	0.6579
263.15 K, 20000 kPa	–	0.6906
263.16 K, 25000 kPa	–	0.7286
263.16 K, 40000 kPa	–	0.8352
273.13 K, 100 kPa	–	0.493
273.13 K, 10000 kPa	–	0.5526
273.14 K, 1000 kPa	–	0.4975
273.14 K, 15000 kPa	–	0.584
273.14 K, 25000 kPa	–	0.643
273.14 K, 29700 kPa	–	0.6776
273.15 K, 5000 kPa	–	0.5227
273.15 K, 20000 kPa	–	0.6131
273.16 K, 2000 kPa	–	0.5035
273.16 K, 40000 kPa	–	0.7422
283.14 K, 15000 kPa	–	0.5206
283.14 K, 20000 kPa	–	0.547
283.15 K, 100 kPa	1402.57	–
283.15 K, 1000 kPa	1405.16	–
283.15 K, 2000 kPa	1408.09	0.446
283.15 K, 5000 kPa	1416.4	0.462
283.15 K, 10000 kPa	1429.39	0.49
283.15 K, 15000 kPa	1441.21	–
283.15 K, 20000 kPa	1452.25	–
283.15 K, 25000 kPa	1462.46	0.5731
283.15 K, 30000 kPa	1472	0.6009
283.15 K, 40000 kPa	1489.73	0.6578
283.15 K, 50000 kPa	1505.53	–
283.15 K, 60000 kPa	1520.01	–
283.15 K, 80000 kPa	1545.15	–
283.15 K, 100000 kPa	1566.76	–
283.16 K, 100 kPa	–	0.4357
283.17 K, 1000 kPa	–	0.4423
293.15 K, 100 kPa	1377.12	–
293.15 K, 1000 kPa	1380.09	0.3924
293.15 K, 2000 kPa	1383.27	0.3978
293.15 K, 5000 kPa	1392.34	–
293.15 K, 10000 kPa	1406.41	0.4385
293.15 K, 15000 kPa	1419.13	–
293.15 K, 15100 kPa	–	0.4651
293.15 K, 20000 kPa	1430.86	–
293.15 K, 25000 kPa	1441.76	0.5151
293.15 K, 30000 kPa	1451.97	0.5414
293.15 K, 40000 kPa	–	0.5919
293.15 K, 60000 kPa	1501.97	–
293.15 K, 80010 kPa	1528.17	–
293.15 K, 99990 kPa	1550.16	–
293.16 K, 200 kPa	–	0.388
293.16 K, 5000 kPa	–	0.4135
293.16 K, 20000 kPa	–	0.4904
293.16 K, 40000 kPa	1470.38	–
293.16 K, 50000 kPa	1486.98	–
303.14 K, 20000 kPa	–	0.441
303.15 K, 100 kPa	1351.47	–
303.15 K, 200 kPa	–	0.3454
303.15 K, 1000 kPa	1354.72	0.3494
303.15 K, 5000 kPa	–	0.3692
303.15 K, 10000 kPa	1383.63	–
303.15 K, 15000 kPa	1397.49	0.4173
303.15 K, 25000 kPa	1421.76	0.4647
303.15 K, 30000 kPa	1432.55	0.4879
303.15 K, 40000 kPa	–	0.5357
303.15 K, 50000 kPa	1469.43	–
303.15 K, 60000 kPa	1485.09	–
303.15 K, 80000 kPa	1512.19	–
303.15 K, 100010 kPa	1535.09	–
303.16 K, 2000 kPa	1358.24	0.3548
303.16 K, 5000 kPa	1368.33	–
303.16 K, 20000 kPa	1410.02	–
303.16 K, 40000 kPa	1452.02	–
303.17 K, 10000 kPa	–	0.3938
313.14 K, 1000 kPa	1327.46	–
313.14 K, 100010 kPa	1519.55	–
313.15 K, 500 kPa	1325.41	0.31
313.15 K, 1000 kPa	–	0.3121
313.15 K, 2000 kPa	1331.4	0.3173
313.15 K, 5000 kPa	1342.64	0.3312
313.15 K, 10000 kPa	1359.5	–
313.15 K, 15000 kPa	1374.49	0.3776
313.15 K, 20000 kPa	1388.16	0.3989
313.15 K, 25000 kPa	1400.64	0.421
313.15 K, 30000 kPa	1412.04	0.4431
313.15 K, 40000 kPa	1432.78	0.4866
313.15 K, 80010 kPa	1495.94	–
313.16 K, 10000 kPa	–	0.3543
313.16 K, 50000 kPa	1451.06	–
313.16 K, 60000 kPa	1467.37	–
323.14 K, 5000 kPa	1317.21	–
323.14 K, 10000 kPa	1335.83	–
323.14 K, 20000 kPa	–	0.3632
323.15 K, 500 kPa	1297.83	–
323.15 K, 1000 kPa	1300.12	–
323.15 K, 5000 kPa	–	0.2981
323.15 K, 10000 kPa	–	0.322
323.15 K, 15000 kPa	1352.25	0.3425
323.15 K, 20000 kPa	1366.96	–
323.15 K, 25000 kPa	1380.35	0.3839
323.15 K, 30000 kPa	1392.69	0.4043
323.15 K, 40000 kPa	1414.6	–
323.15 K, 50000 kPa	1433.91	–
323.15 K, 80010 kPa	1480.77	–
323.15 K, 100010 kPa	1505.41	–
323.16 K, 500 kPa	–	0.2776
323.16 K, 1000 kPa	–	0.28
323.16 K, 2000 kPa	1304.59	0.2844
323.16 K, 40000 kPa	–	0.445
323.16 K, 60000 kPa	1451.12	–
333.14 K, 500 kPa	–	0.2497
333.15 K, 1000 kPa	1271.96	0.2521
333.15 K, 5000 kPa	1291.31	0.2705
333.15 K, 10000 kPa	–	0.2917
333.15 K, 15000 kPa	–	0.3126
333.15 K, 20000 kPa	1346	0.3321
333.15 K, 25000 kPa	1360.41	0.3512
333.15 K, 30000 kPa	1373.57	0.3741
333.15 K, 40000 kPa	1396.93	0.41
333.15 K, 50000 kPa	1417.34	–
333.15 K, 60000 kPa	1435.25	–
333.15 K, 80000 kPa	1466.47	–
333.15 K, 100000 kPa	1492.09	–
333.16 K, 500 kPa	1269.32	–
333.16 K, 2000 kPa	1277.07	0.2568
333.16 K, 10000 kPa	1312.03	–
333.16 K, 15000 kPa	1330.02	–
343.15 K, 1000 kPa	–	0.2262
343.15 K, 2000 kPa	1248.57	0.2308
343.15 K, 5000 kPa	–	0.2443
343.15 K, 10000 kPa	–	0.2663
343.15 K, 15000 kPa	1307.63	0.2864
343.15 K, 20000 kPa	–	0.3054
343.15 K, 25000 kPa	–	0.3246
343.15 K, 30000 kPa	–	0.3429
343.15 K, 40000 kPa	1379.44	0.3794
343.15 K, 50000 kPa	1400.93	–
343.15 K, 60000 kPa	1419.91	–
343.15 K, 80000 kPa	1452.33	–
343.15 K, 100000 kPa	1478.79	–
343.16 K, 500 kPa	1239.61	0.224
343.16 K, 1000 kPa	1242.66	–
343.16 K, 5000 kPa	1264.73	–
343.16 K, 10000 kPa	1287.86	–
343.16 K, 20000 kPa	1324.98	–
343.16 K, 25000 kPa	1340.52	–
343.16 K, 30000 kPa	1354.59	–
353.14 K, 2000 kPa	–	0.2104
353.15 K, 1000 kPa	1211.33	–
353.15 K, 2000 kPa	1218.18	–
353.15 K, 5000 kPa	–	0.221
353.15 K, 10000 kPa	–	0.2419
353.15 K, 15000 kPa	1284.42	0.2623
353.15 K, 20000 kPa	–	0.2801
353.15 K, 25000 kPa	1320.02	–
353.15 K, 30000 kPa	1335.13	0.3157
353.15 K, 40000 kPa	1361.5	0.3504
353.15 K, 50000 kPa	1384.21	–
353.15 K, 60000 kPa	1404.05	–
353.15 K, 80010 kPa	1438.01	–
353.15 K, 100000 kPa	1465.73	–
353.16 K, 1000 kPa	–	0.2057
353.16 K, 5000 kPa	1236.75	–
353.16 K, 10000 kPa	1262.64	–
353.16 K, 20000 kPa	1303.28	–
353.16 K, 25000 kPa	–	0.2983
363.15 K, 1000 kPa	1177.46	–
363.15 K, 10000 kPa	1236.32	–
363.15 K, 25000 kPa	1298.98	–
363.15 K, 30000 kPa	1315.14	–
363.15 K, 60000 kPa	1387.96	–
363.15 K, 79990 kPa	1423.19	–
363.16 K, 2000 kPa	1185.52	–
363.16 K, 5000 kPa	1207.05	–
363.16 K, 15000 kPa	1260.38	–
363.16 K, 20000 kPa	1280.92	–
363.16 K, 40000 kPa	1343.17	–
363.16 K, 50000 kPa	1367.09	–
363.16 K, 100000 kPa	1451.81	–
373.15 K, 1000 kPa	1140.74	–
373.15 K, 5000 kPa	1175.78	–
373.15 K, 10020 kPa	1209.06	–
373.15 K, 15000 kPa	1235.47	–
373.15 K, 25000 kPa	1277.24	–
373.15 K, 30000 kPa	1294.44	–
373.15 K, 50000 kPa	1349.23	–
373.15 K, 60000 kPa	1370.99	–
373.15 K, 80010 kPa	1407.73	–
373.15 K, 100010 kPa	1437.36	–
373.16 K, 2000 kPa	1150.47	–
373.16 K, 20020 kPa	1257.86	–
373.16 K, 40000 kPa	1324.14	–
